We go through 26 compounds from US8986722B2, “Pest control composition” (priority 2010, dated 2015).

Data set [1] is described as follows: HLB of polyglycerol fatty acid ester, Griffin formula 20(1−S/A). Format: physicochemical. To be noted: from saponification and acid values. An excerpt:
The HLB (Hydrophile-Lipophile Balance) is an index indicating degrees of hydrophilic properties and lipophilic properties of a surfactant and being shown by a numerical value of 0 to 20. […] Therefore, a surfactant having a low HLB is apt to adapt to a hydrophobic system and a surfactant having a high HLB is apt to adapt to a hydrophilic system.
As the HLB value of said polyglycerol fatty acid ester, a numerical value derived from the following calculation method which is an empirical formula by Griffin is applied. In this regard, as the below-described saponification and acid values, values analyzed in accordance with general test procedures of standards for food additives and standards of quasi-drug ingredients are used. HLB value=20(1−S/A)
S: Saponification value for an ester of a surfactant.
A: Acid value of a fatty acid constituting a surfactant.

Data set [2] is described as follows: Surface tension by Wilhelmy method (plate method). Type of data set: physicochemical. To be noted: 20° C., 0.1% by mass aqueous solution. Here is the method:
For surface tension in the present description, a numerical value measured by Wilhelmy method (plate method) is used. The principle of measurement is as described below. When a platinum plate is contacted with the surface of a liquid, the liquid rises along the plate. Then, surface tension acts along the periphery of the plate and a force drawing the plate into the liquid is generated. Thus in the method, this drawing force is measured and the surface tension is measured. Specifically, a 0.1% by mass aqueous solution of a sample nonionic surfactant is made as a measurement sample, which is measured by an automatic surface tension measuring machine (for example, DY-300 automatic surface tension meter, manufactured by Kyowa Interface Science Corp., Ltd.) by Wilhelmy method shown above at a temperature of 20° C. to determine the surface tension. […] The nonionic surfactant has a property to decrease the surface tension of an aqueous solution. For this reason, when an aqueous solution containing this adheres to the surface of another substance, “wettability” at said surface is improved. As a result, a diluent of the present invention composition containing said nonionic surfactant easily adheres to the surface of target pests and the surface of spray-target agricultural crops.

What is called surface tension is the force per length acting along the surface.

For “decaglycerol decaoleate [SY Glyster DAO-7S]”, the HLB is reported as 3.2 in data set [1] and “about 4” in data set [1] (listed as decaglycerol decaoleic acid ester).
Consider “decaglycerol monocaprate [SY Glyster MCA-750]”, for which the figures for the HLB in data set [1] and in data set [1] (listed as decaglycerol monocapric acid ester) were 16 and “about 16”, respectively.
In the case of “tetraglycerol monolaurate [SY Glyster ML-310]”, the HLB is on record as 10.3 in data set [1] and “about 10” in data set [1] (listed as tetraglycerol monolauric acid ester).
On to decaglycerol dodecaoleic acid ester, for which the HLB result in data set [1] is listed as “about 3”.
On to diglycerol monooleate [S-FACE O-201P], for which the HLB in data set [1] is 8; in data set [1] (listed as diglycerol monooleic acid ester) it was “about 8”.
In the case of decaglycerol heptaoleic acid ester, the HLB result in data set [1] was “about 5”.
On the same count and under the same terms, next, diglycerol tetraoleic acid ester: “about 2”.
The same measure, in the same setting: as for tetraglycerol pentaoleic acid ester, the entry is “about 2”.
In the case of hexaglycerol octaoleic acid ester, the HLB result in data set [1] is listed as “about 4”.
Still for that read-out and setting: next, decaglycerol nonaoleic acid ester: “about 4”; “decaglycerol erucate [SY Glyster OE-750]”: 3.7.
On to “hexaglycerol pentaoleate [SY Glyster PO-5S]”, for which the figures for the HLB in data set [1] and in data set [1] (listed as hexaglycerol pentaoleic acid ester) were 4.9 and “about 5”, respectively.
tetraglycerol trioleic acid ester: the HLB result in data set [1] is given as “about 5”.
In data set [1], “decaglycerol erucate [SY Glyster NE-750]” came in with an HLB of 3.2.
Same read-out and setting: next, hexaglycerol hexaoleic acid ester: “about 4”; diglycerol trioleic acid ester: “about 3”.
On the same count and under the same terms, as for “polyglycerol condensed ricinoleate [SY Glyster CRS-75]”, the figure is 3.
Regarding “hexaglycerol monooleate [SY Glyster MO-5S]”, the HLB in data set [1] is given as 11.6; in data set [1] (listed as hexaglycerol monooleic acid ester) it was “about 11”.
For the compound hexaglycerol heptaoleic acid ester, the HLB result in data set [1] was “about 4”.
In the case of “hexaglycerol condensed ricinoleate [SY Glyster CR-500]”, the HLB in data set [1] is on record as 3; in data set [1] (listed as hexaglycerol-condensed ricinoleic acid ester) it was “about 3”.
For the compound tetraglycerol tetraoleic acid ester, the HLB result in data set [1] is recorded as “about 4”.
The same measure, in the same setting: next, decaglycerol undecaoleic acid ester: “about 3”; decaglycerol octaoleic acid ester: “about 5”.
Take `CCCCCCCCOC(=O)CC(C(=O)OCCCCCCCC)S(=O)(=O)O` (stereo not drawn) [Newkalgen EP-70G, dioctyl sulfosuccinate]: in data set [2], the surface tension is 28 mN/m.
Consider diglycerol dioleic acid ester, for which the HLB result in data set [1] is “about 4”.
Take tetraglycerol hexaoleic acid ester: in data set [1], the HLB entry was “about 2”.
